Test [1] concerns the target T1, NUAK family SNF1-like kinase 1 (Homo sapiens) (UniProt O60285).
T1 sequence (whole entry): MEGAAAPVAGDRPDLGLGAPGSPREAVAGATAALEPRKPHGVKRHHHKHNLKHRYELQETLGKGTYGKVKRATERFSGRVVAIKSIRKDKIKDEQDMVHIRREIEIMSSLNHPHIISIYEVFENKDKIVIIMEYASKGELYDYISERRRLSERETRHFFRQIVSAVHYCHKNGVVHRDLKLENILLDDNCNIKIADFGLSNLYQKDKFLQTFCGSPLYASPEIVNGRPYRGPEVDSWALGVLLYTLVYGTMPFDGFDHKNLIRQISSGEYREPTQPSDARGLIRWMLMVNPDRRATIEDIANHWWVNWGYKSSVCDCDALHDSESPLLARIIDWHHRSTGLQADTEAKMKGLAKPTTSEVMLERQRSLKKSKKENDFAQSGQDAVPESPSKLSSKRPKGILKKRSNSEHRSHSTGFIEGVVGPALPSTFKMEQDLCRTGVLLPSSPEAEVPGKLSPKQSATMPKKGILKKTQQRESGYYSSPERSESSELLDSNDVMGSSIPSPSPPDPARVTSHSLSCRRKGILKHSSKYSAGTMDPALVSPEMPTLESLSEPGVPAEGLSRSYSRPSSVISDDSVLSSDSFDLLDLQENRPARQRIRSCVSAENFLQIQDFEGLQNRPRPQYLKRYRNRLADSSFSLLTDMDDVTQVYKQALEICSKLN
Briefly: Selectivity interaction (KinomeScan (DiscoverX)) EUB0000595a NUAK1. The settings on record: at 10 µM.

For test [2], the target named is Interferon-induced, double-stranded RNA-activated protein kinase (Homo sapiens) (UniProt P19525). Put plainly: Selectivity interaction (KinomeScan (DiscoverX)) EUB0000699a EIF2AK2. As to conditions: at 10 µM.
In test [3] the target is T2, Serine/threonine-protein kinase 17B (Homo sapiens) (UniProt O94768).
T2 sequence (whole entry): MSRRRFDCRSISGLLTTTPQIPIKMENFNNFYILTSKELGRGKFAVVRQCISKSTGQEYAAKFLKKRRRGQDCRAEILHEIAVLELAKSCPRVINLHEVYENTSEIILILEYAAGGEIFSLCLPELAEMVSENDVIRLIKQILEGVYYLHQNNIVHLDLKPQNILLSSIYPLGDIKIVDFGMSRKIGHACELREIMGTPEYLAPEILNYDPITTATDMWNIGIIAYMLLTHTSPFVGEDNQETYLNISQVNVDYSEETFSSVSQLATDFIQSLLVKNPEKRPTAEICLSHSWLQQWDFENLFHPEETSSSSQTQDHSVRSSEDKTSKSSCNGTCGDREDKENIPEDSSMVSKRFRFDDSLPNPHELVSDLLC
Briefly: Selectivity interaction (KinomeScan (DiscoverX)) EUB0000607a STK17B. The settings on record: at 10 µM.

Test [4] has as its target Tyrosine-protein kinase FRK (Homo sapiens) (UniProt P42685). Put plainly: Selectivity interaction (KinaseProfiler screening (Millipore)) EUB0000601a FRK. The settings on record: at 3 µM.
The target of test [5] is T3, Phosphatidylinositol 5-phosphate 4-kinase type-2 gamma (Homo sapiens) (UniProt Q8TBX8).
T3 sequence (whole entry): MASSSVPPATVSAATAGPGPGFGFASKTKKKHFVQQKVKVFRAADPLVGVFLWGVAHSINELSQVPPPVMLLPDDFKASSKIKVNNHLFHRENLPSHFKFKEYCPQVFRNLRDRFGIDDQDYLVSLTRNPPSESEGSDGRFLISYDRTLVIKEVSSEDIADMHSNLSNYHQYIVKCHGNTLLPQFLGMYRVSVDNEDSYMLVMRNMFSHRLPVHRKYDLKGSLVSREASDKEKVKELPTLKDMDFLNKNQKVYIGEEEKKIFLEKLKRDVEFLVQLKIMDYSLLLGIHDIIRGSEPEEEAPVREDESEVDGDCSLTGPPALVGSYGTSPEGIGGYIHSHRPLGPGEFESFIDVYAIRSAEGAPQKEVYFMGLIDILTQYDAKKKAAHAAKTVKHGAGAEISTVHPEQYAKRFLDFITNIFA
Put plainly: Selectivity interaction (KinomeScan (DiscoverX)) EUB0000618a PIP4K2C. As to conditions: at 10 µM.

The target of test [6] is Serine/threonine-protein kinase MRCK beta (Homo sapiens) (UniProt Q9Y5S2). Briefly: Selectivity interaction (KinomeScan (DiscoverX)) EUB0000092b CDC42BPB. As to conditions: at 10 µM.
The target in test [7] is Bromodomain-containing protein 9 (Homo sapiens) (UniProt Q9H8M2). Briefly: Selectivity interaction (Human bromodomain panel (DSF assay)) EUB0000233b BRD9. In general terms: In DSF a fluorescence change marks the thermal transition of the protein.
Test [8] has as its target T4, TGF-beta receptor type-1 (Homo sapiens) (UniProt P36897).
T4 sequence (whole entry): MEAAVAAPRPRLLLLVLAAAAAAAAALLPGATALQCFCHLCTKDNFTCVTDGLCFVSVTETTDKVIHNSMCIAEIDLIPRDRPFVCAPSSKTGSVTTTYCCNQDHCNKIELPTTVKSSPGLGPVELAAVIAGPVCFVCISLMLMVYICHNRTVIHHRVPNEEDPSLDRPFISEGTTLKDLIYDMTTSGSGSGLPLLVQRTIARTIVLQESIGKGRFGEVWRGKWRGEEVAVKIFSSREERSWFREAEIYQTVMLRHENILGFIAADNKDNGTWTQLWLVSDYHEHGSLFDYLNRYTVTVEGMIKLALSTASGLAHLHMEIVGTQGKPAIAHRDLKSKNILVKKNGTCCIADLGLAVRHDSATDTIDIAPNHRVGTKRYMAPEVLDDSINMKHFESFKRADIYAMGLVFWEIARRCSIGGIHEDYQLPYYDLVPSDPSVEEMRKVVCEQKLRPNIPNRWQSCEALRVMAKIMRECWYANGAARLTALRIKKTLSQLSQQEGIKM
Put plainly: Selectivity interaction (KinomeScan (DiscoverX)) EUB0000229b TGFBR1. The settings on record: at 10 µM.

Test [9] addresses Phosphatidylinositol 3-kinase catalytic subunit type 3 (Homo sapiens, UniProt Q8NEB9). Put plainly: Selectivity interaction (Kinase panel (KiNativ target engagement assay in Jurkat cells)) EUB0001635a PIK3C3. In kind it is cell-based. The settings on record: Selectivity number of off-targets 0.0, Selectivity number of targets 233.0, Source Knowledge https://www.sciencedirect.com/science/article/pii/S2451945619300674?via%3Dihub, at 1 µM.

Sequence of Serine/threonine-protein kinase MRCK beta (Homo sapiens) (Q9Y5S2 whole entry): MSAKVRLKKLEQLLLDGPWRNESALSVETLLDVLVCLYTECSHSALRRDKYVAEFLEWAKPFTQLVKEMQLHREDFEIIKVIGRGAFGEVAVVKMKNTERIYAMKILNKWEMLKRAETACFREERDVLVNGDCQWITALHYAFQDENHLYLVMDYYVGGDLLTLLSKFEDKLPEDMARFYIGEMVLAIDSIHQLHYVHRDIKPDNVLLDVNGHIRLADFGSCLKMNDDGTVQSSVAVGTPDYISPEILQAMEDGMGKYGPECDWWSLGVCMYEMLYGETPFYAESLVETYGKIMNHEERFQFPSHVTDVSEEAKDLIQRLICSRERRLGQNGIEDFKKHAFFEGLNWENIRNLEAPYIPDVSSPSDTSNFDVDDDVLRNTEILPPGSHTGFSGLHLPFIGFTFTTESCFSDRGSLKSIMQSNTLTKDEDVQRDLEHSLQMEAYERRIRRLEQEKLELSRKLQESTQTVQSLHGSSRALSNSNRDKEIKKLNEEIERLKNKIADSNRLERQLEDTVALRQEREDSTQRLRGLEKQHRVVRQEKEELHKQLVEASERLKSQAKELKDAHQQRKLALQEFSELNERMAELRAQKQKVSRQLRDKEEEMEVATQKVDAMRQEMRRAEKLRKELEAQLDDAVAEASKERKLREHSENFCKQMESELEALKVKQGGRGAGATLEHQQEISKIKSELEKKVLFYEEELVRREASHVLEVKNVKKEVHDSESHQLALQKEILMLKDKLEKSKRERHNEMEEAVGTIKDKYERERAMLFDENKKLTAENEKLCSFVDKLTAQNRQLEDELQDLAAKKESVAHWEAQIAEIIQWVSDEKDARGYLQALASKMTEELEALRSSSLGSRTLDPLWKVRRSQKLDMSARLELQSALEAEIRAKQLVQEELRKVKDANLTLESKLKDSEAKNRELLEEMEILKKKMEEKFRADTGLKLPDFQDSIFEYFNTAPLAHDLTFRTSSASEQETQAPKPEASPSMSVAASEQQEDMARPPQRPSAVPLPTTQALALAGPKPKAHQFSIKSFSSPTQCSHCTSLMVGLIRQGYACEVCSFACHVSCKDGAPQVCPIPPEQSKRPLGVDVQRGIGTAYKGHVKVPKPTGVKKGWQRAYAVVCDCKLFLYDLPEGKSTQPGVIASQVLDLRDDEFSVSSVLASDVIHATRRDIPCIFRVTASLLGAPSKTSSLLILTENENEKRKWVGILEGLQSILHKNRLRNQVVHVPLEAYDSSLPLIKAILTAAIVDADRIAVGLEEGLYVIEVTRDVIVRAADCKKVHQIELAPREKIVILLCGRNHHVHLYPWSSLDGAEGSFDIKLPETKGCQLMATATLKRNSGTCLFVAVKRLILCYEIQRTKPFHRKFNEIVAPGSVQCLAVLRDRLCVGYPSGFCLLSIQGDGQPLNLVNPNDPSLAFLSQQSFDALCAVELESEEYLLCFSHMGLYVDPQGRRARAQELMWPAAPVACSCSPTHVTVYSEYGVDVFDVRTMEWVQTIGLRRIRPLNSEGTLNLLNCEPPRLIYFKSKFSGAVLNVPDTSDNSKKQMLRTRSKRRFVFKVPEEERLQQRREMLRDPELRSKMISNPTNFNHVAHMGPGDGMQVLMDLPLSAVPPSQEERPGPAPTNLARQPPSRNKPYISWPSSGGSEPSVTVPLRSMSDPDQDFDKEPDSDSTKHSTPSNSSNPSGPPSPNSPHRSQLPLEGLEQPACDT
Sequence of Bromodomain-containing protein 9 (Homo sapiens) (Q9H8M2 whole entry): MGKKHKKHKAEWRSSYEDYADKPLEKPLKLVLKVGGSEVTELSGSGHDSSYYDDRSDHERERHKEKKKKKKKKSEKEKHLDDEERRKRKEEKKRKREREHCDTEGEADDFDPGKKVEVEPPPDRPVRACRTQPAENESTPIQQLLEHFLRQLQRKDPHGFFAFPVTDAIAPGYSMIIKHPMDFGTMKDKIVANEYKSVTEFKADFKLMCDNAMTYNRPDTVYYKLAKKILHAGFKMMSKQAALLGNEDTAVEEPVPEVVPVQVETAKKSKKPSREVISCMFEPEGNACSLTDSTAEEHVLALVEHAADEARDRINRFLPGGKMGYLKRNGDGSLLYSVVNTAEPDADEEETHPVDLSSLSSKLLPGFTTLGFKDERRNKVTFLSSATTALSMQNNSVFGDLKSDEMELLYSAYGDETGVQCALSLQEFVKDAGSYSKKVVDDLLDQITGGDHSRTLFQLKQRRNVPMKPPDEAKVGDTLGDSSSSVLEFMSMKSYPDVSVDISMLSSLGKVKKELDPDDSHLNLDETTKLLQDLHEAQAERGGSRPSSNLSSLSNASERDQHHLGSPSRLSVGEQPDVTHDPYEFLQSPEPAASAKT
Sequence of Phosphatidylinositol 3-kinase catalytic subunit type 3 (Q8NEB9 whole entry): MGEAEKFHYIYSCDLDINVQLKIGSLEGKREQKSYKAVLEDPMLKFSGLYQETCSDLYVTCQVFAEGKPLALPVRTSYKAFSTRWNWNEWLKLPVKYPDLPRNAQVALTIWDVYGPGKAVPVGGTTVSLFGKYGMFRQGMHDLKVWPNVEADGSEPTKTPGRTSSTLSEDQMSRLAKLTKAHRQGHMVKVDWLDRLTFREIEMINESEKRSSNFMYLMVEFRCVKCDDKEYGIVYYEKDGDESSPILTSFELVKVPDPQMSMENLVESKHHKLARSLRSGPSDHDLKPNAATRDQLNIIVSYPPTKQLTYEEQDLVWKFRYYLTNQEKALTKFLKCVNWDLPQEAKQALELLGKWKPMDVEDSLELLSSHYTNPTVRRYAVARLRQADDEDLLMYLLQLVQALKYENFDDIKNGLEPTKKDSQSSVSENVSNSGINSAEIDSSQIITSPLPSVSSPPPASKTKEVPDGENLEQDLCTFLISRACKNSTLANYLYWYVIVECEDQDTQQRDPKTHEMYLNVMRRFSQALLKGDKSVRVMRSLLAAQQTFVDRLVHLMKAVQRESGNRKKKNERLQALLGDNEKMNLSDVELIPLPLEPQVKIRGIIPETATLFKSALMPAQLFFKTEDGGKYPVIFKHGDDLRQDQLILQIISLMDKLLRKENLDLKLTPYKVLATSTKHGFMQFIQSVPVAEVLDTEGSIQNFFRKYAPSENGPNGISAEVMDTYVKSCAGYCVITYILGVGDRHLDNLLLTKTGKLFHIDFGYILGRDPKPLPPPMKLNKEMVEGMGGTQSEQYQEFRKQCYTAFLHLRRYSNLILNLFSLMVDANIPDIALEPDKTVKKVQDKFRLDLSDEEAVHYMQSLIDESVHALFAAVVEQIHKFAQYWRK
Sequence of Tyrosine-protein kinase FRK (Homo sapiens) (P42685 whole entry): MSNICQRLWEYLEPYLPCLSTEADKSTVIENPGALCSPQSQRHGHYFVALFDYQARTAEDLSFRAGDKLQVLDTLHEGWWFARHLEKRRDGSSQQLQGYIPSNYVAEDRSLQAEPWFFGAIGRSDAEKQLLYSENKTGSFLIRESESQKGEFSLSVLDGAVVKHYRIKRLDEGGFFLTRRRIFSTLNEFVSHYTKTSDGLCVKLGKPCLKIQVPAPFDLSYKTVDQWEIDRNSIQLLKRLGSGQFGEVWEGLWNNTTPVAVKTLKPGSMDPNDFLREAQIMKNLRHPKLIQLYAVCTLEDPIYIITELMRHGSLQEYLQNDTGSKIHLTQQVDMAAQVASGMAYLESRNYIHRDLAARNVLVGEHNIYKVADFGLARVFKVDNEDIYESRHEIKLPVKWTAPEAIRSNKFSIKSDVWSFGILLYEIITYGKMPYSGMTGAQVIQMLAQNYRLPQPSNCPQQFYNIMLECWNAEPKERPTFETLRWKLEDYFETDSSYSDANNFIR
Sequence of Interferon-induced, double-stranded RNA-activated protein kinase (Homo sapiens) (P19525 whole entry): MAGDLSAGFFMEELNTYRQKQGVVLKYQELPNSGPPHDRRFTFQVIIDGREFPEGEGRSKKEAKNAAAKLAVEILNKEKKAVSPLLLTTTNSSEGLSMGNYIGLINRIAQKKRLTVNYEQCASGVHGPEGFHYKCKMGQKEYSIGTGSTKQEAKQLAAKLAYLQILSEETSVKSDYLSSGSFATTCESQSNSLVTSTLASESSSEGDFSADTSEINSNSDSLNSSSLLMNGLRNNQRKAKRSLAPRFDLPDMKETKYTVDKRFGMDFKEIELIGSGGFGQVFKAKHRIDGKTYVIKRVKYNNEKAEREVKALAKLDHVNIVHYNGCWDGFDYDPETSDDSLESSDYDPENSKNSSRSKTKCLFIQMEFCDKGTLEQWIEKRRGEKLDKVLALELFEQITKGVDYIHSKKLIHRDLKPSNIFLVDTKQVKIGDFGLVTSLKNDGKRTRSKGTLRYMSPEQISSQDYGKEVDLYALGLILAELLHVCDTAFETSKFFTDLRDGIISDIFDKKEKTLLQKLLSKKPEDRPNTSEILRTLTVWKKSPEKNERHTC

The compound `COCC(=O)NC/C=C/c1ccc2ncnc(Nc3ccc(Oc4ccc(C)nc4)c(C)c3)c2c1` [CP-724714] gave a % of control in test [1] of 100%. The compound `CCN(CC)CCCCNc1ncc2cc(-c3cc(OC)cc(OC)c3)c(NC(=O)NC(C)(C)C)nc2n1` showed a % of control in [2] of 24%. `CNC(=O)Nc1ccc(-c2nc(N3CC4CCC(C3)O4)c3cnn(C4CCC5(CC4)OCCO5)c3n2)cc1` had a % of control in [3] of 100%.

For the compound `CCc1cc(Nc2nccc(-c3c(-c4ccc(OC)c(C(=O)Nc5c(F)cccc5F)c4)nc4ccccn34)n2)c(OC)cc1N1CCC(N2CCN(S(C)(=O)=O)CC2)CC1`, the % of inhibition in test [4] worked out at 97%. Regarding `O[C@H]1CC[C@H](Nc2ncc3nc(Nc4c(F)cc(F)cc4F)n([C@H]4CCOC4)c3n2)CC1`, in [5], the % of control came to 32%. In [6], `CCC(=O)N1CCN(c2ccc(-n3c(=O)ccc4cnc5ccc(-c6cnc7ccccc7c6)cc5c43)cc2C(F)(F)F)CC1` came in with a % of control of 3.4%. As for `CN(C)CCCOc1ccc(-c2cc(NCCCn3cccn3)nc(S(C)(=O)=O)n2)cc1`, the dTM in test [7] worked out at 4.8 K. As to `COc1cc(N(C)c2ccnc3ccc(C(F)(F)F)cc23)cc(OC)c1OC`, the % binding in [8] stood at 89%. Take `C=CC(=O)Nc1ccc(C(=O)Nc2[nH]nc3c2CN(C(=O)N[C@H](CN(C)C)c2ccccc2)C3(C)C)cc1`: the % of engagement in [9] is -19.8%.

The values above are taken from ChEMBL document CHEMBL5465560, “Selectivity Literature for EUbOPEN Chemogenomic Library” (2024).
